According to patent US10416170B2, “Detection and removal of misfolded proteins/peptides” (OXPROTECT GMBH, priority 2011, dated 2019):

System: misfolded proteins
Assay: Binding of misfolded proteins to biotinylated peptide on streptavidin plate (OD 492 nm) or Biacore sensor chip
Details: statement in words; data only in figures
Protocol: Biotinylated PRKLYDY (SEQ ID NO: 5) was coated on a preblocked streptavidin plate for 1 hour at room temperature. After a washing step different concentrations of HOCl-modified albumin, or HOCl-modified fibrinogen, or HOCl-modified antithrombin, or HOCl-modified LDL (including negative control) were added for 1 hour at room temperature. After another washing step mouse anti HSA antibody was added to HOCl-modified albumin, rabbit anti fibrinogen antibody to HOCl-modified fibrinogen, rabbit anti antithrombin antibody to HOCl-modified antithrombin and mouse anti Apo B antibody to HOCl-modified LDL for 1 hour at room temperature. After another washing step the corresponding peroxidase coupled secondary antibody was added for 1 hour at room temperature. After a final washing step it was stained with o-phenylenediamine-substrate and the reaction was stopped after 30 min with 4 N sulphuric acid. The optical density was measured at 492 nm. The result is illustrated in FIG. 1A and FIG. 1B.
Biotinylated HWRRAHLLPRLP (SEQ ID NO: 2) was coated on a preblocked streptavidin plate for 1 hour at room temperature. After a washing step different concentrations of HOCl-modified albumin, or HOCl-modified fibrinogen, or HOCl-modified antithrombin, or HOCl-modified LDL (including negative control) were added for 1 hour at room temperature. […] The optical density was measured at 492 nm (FIG. 8A and FIG. 8B). […]

| affinity for misfolded proteins (general binding partner) | Substance |
| --- | --- |
| high affinity | PRKLYDY (Plasminogen peptide) [Pro, Arg, Lys, Leu, Tyr, Asp, Tyr] |
| high degree of affinity | HWRRAHLLPRLP (ADAM15 peptide aa position 286-297) [His, Trp, Arg, Arg, Ala, His, Leu, Leu, Pro, Arg, Leu, Pro] |
